The target of one assay is T1, human TLR8 (Homo sapiens, UniProt Q9NR97).
T1 construct: host or cells: HEK-Blue hTLR8 (HEK293-derived reporter cells)
T1 sequence (Q9NR97 27-1041): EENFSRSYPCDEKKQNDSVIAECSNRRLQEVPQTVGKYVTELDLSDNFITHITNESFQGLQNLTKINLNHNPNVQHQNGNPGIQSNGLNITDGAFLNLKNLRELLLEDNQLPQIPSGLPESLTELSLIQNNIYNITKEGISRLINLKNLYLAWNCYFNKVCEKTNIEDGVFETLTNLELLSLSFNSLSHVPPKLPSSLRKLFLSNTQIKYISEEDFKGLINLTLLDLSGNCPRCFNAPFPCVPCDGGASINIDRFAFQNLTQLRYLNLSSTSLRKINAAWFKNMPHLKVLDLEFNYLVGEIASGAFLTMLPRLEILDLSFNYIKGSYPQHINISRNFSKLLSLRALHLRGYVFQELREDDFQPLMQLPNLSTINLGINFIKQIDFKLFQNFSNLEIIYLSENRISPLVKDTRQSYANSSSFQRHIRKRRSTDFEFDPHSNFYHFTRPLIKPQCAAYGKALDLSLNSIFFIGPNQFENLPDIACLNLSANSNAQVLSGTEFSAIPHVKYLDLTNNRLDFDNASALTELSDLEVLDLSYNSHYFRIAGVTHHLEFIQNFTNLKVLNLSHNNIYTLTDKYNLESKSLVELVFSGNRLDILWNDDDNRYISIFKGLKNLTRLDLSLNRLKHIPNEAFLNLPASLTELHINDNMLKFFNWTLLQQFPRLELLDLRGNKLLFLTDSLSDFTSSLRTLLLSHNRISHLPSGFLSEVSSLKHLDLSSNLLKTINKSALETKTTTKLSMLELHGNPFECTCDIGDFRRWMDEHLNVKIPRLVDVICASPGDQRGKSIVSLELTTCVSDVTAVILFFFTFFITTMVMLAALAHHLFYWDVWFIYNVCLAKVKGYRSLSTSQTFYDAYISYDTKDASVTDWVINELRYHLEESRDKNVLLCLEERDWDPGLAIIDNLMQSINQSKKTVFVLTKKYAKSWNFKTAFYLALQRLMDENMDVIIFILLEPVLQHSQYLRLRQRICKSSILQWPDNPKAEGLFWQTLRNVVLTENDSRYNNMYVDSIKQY
The assay is described as follows: HEK-Blue hTLR8 SEAP reporter gene agonism assay. In kind it is cell-based. Particulars: HEK-Blue hTLR8 cells, SEAP (Quanti-blue, 650 nm), 16-22 hours incubation. How it is done: (§1) The agonistic activity of the compounds of the present invention on TLR7 or TLR8 was evaluated using HEK-Blue™ cells stably expressing human TLR7 or TLR8. And the agonistic activity was assayed using their ability to induce the SEAP reporter gene under the control of the IFN-β minimal promoter fused to five NF-κB and ap-1 binding sites, specifically as follows:
(§2) HEK-Blue™ hTLR7 (Invivogen, 80,000 cells per well) or HEK-Blue™ hTLR8 (Invivogen, 60,000 cells per well) was added to a 96-well cell culture plate, the compound to be tested is added whereafter, and the final concentration of the compound(s) to be tested in the medium ranged from 0.001 to 36 μM, then incubated for 16-22 hours. SEAP levels in the cell culture medium were detected using HEK-Blue assay reagent Quanti-blue (Invivogen) according to the manufacturer's instructions. Neo2 Multifunctional Enzyme Labeler (Bio-tek) was used to determine the light absorption at 650 nm. GraphPad Prism was utilized to calculate the EC50, which is the half effective concentration of the drug.
Background: A reporter such as luciferase makes a cellular process visible.

In the next assay the target is T2, human TLR7 (Homo sapiens, UniProt Q9NYK1).
T2 construct: host or cells: HEK-Blue hTLR7 (HEK293-derived reporter cells)
T2 sequence (Q9NYK1 27-1049): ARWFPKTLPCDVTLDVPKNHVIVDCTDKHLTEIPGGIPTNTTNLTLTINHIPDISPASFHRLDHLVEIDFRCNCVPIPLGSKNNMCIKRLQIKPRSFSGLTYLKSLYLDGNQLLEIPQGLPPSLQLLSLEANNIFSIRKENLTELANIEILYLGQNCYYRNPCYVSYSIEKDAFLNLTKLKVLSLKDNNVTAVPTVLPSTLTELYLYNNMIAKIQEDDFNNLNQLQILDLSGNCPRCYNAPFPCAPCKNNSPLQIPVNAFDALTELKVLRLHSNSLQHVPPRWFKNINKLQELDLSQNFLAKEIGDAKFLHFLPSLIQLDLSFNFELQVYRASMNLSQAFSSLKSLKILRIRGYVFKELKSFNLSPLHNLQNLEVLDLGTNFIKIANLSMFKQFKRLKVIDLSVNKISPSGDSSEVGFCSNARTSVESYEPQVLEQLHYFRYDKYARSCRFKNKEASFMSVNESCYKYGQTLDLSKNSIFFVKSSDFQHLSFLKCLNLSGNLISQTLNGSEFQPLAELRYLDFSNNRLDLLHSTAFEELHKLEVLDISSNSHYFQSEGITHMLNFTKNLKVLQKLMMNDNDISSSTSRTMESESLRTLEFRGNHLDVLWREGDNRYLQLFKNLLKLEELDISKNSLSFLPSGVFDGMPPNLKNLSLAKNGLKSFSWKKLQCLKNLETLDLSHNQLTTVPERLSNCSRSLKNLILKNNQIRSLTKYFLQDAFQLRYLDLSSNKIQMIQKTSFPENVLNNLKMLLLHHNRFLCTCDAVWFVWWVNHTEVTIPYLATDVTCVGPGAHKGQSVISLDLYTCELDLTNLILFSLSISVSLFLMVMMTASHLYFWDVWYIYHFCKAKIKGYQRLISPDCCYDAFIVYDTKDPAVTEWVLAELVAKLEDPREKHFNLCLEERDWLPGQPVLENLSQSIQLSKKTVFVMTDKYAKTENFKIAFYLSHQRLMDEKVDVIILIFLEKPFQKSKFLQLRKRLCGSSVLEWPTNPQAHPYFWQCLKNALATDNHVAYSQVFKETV
The assay is described as follows: HEK-Blue hTLR7 SEAP reporter gene agonism assay. In kind it is cell-based. Particulars: HEK-Blue hTLR7 cells, SEAP (Quanti-blue, 650 nm), 16-22 hours incubation. How it is done:
as §1, §2

In general, EC50 refers to the concentration that produces a half-maximal response. Read a high EC50 as weaker potency. In the case of `CCCN[C@@H](C)c1ccc(Cn2ncc3nc(N)nc(N[C@H](C)CCC)c3c2=O)cc1` [Compound I-52, 2-amino-4-(((R)-pentan-2-yl)amino)-6-(4-((S)-1-(propylamino)ethyl)benzyl)pyrimido[4,5-d]pyridazine-5(6H)-one], the EC50 on human TLR8 is 0.125 µM; at human TLR7, 0.785 µM.

As for `CCC[C@@H](C)Nc1nc(N)nc2cnn(Cc3ccc(OCCNC)nc3OC)c(=O)c12` [Compound I-53, (R)-2-amino-6-((2-methoxy-6-(2-(methylamino)ethoxy)pyridin-3-yl)methyl)-4-(pentan-2-ylamino)pyrimido[4,5-d]pyridazin-5(6H)-one], the EC50 on human TLR8 was 0.175 µM; on human TLR7, 0.597 µM.

Consider `CCC[C@@H](C)Nc1nc(N)nc2cnn(Cc3ccc(C4CCN(C)CC4)cc3)c(=O)c12` [Compound I-57, (R)-2-amino-6-(4-(1-methylpiperidin-4-yl)benzyl)-4-(pentan-2-ylamino)pyrimido[4,5-d]pyridazin-5(6H)-one], for which the EC50 on human TLR8 was determined as 0.107 µM; on human TLR7, 0.407 µM.

Source of the values: patent US20250195524A1, “PYRIMIDO-PYRIDAZINONE COMPOUND AS TOLL-LIKE RECEPTOR AGONIST” (SHANGHAI VISONPHARMA CO., LTD., priority 2022, published 2025).
